# Data from US20220251079A1, “BENZO[B][1,8]NAPHTHYRIDINE ACETIC ACID DERIVATIVES AND METHODS OF USE” (STINGTHERA, INC., priority 2019, published 2022).
# Legend:
# [1] = biological target: T1, STING protein (Homo sapiens, UniProt Q86WV6, H232R); experiment: Cell based reporter assay of IRF activation (THP1-dual-KI R232, IRF luciferase); conditions: THP-1; read-out: THP1-dual-KI R232_IRF(Luciferase)_Activity Maximum measured (%)
# T1 construct: host or cells: THP-1 dual reporter cells, TMEM173 modified from HAQ to R232 (THP1-dual-KI R232)
# T1 sequence (Q86WV6 whole entry H232R): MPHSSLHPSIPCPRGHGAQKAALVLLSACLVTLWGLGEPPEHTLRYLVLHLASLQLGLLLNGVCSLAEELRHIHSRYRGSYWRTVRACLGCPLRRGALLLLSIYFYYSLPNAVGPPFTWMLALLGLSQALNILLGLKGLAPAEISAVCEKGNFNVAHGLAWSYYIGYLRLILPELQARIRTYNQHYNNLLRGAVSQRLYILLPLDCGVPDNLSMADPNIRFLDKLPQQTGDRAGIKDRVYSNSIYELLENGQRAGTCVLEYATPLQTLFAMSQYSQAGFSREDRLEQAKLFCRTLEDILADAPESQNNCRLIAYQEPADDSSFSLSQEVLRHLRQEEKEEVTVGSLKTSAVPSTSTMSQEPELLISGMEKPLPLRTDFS
# Description: Cell reporter assays were developed to measure the ability of compounds of the application to activate the STING protein and activate both IRF/IFN and the NFkB signaling pathways in the myeloid derived cell line THP-1, which is commercially available from several suppliers. Briefly, THP-1 monocytes were transfected and selected for stable integration of 2 reporter constructs. Clones incorporating stably integrated vectors were further selected by antibiotic resistance to blastocidin and zeocin. The reporter constructs included: (1) firefly luciferase reporter gene under the control of an ISG54 promoter fused to five interferon (IFN)-stimulated response elements to measure IRF transcription factor binding activity and (2) secreted embryonic alkaline phosphatase reporter gene under transcription control of an IFN-beta minimal promoter fused to 5 copies of the NFkB consensus transcriptional response element and 3 copies of the c-Rel binding site.
# The resulting THP-1 cell line was further modified to incorporate 3 amino acid point mutations (H71R A230G Q293R). This modification of the native TMEM173 gene in THP-1 cells (HAQ) was designed to produce a cell reporter that expressed the most common allelic variant in the human population (THP-1 R232, available from InvivoGen). Alternatively, the TMEM173 gene was knocked out to provide a congenic control to counter-screen for compound activation that was independent of the STING protein (THP-1 STING KO).
# Once cell lines were established, reporter assay protocols were developed and optimized to screen small molecule compounds for agonist activity. Assay optimization for efficacy and Z′ value included titration of the following parameters:
# 1. No pre-activation with PMA
# 2. […]cells/well in 96 well plate format
# 7. Cell Titer Glo reagent (Promega) following supermatant removal
# 9. 8 point, 2 fold, duplicate starting at 150 μM PP28T
# [2] = biological target: T2, hSTING-R232 (Homo sapiens, UniProt Q86WV6, H232R); experiment: STING Differential Scanning Fluorimetry (DSF) assay, human; type: binding; conditions: human STING R232-WT, 5 μM protein
# T2 construct: recombinant mouse or human STING protein (aa140-379); 6xHis-SUMO elsewhere) (cleaved yes); made in house
# T2 sequence (Q86WV6 140-379 H232R): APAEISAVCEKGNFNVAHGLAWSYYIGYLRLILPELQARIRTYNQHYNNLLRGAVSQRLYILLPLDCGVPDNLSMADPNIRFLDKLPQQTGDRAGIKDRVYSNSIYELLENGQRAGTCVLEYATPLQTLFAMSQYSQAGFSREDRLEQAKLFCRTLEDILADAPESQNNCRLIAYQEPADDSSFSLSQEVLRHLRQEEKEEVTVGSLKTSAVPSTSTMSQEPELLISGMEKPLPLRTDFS
# Experimental: A STING DSF assay was performed to determine protein thermostability shift in response to small molecule ligand binding. A STING thermostability shift assay based on differential scanning fluorimetry was used to measure (1) the net shift in melting temperature (ΔTm)between the apo and ligand-bound states of the STING protein and (2) the concentration of the thermal denaturation transition (FC50) as a surrogate measure of binding affinity (Kd). Briefly, recombinant mouse or human STING protein (aa140-379) comprising the C-terminal binding domain (R232-WT) were purified by affinity chromatography and further processed to remove the purification tag, followed by gel filtration to achieve purity >95%. Protein in assay buffer was transferred to a 384 well plate and incubated with the hydrophobic fluorescent dye SYBR Orange. A temperature ramp was applied to the plate and the resulting dye fluorescence was plotted as a function of temperature. The first derivative of this function (dF/dT) was then used to extrapolate the melting temperature of the protein at various concentrations of compound and determine the thermal denaturation profile of a protein/compound complex.
# 2. 5 μM purified Target STING Protein
# 4. Buffer: 100 mM NaCl, 30 mM HEPES, pH 7.5
# 5. Thermal Ramp: 0.5° C./min
# 7. 11 point, 2 fold dilution, duplicate, 300 μM high concentrations
# [3] = biological target: T3, human STING protein (140-379) (Homo sapiens, UniProt Q86WV6, H232R); experiment: Radiometric filtration binding competition assay (WT_FBA_HIS-SUMO-hSWAT); conditions: read-out: WT-hSWAT IC50
# T3 construct: 6XHIS-SUMO-hSTING (140-379); made in house; host or cells: BL-21(DE3) E. coli, pET vector
# T3 sequence (Q86WV6 140-379 H232R): as above
# Experimental: A radiometric filtration binding competition assay was performed to quantify the binding affinity of compounds of the present application for the human or mouse STING protein, or associated HAQ human isoform. The competition format filtration binding assay detects the ability of small molecule compounds from binding to and inhibiting the subsequent binding of a tritiated [H3] […] The resulting dose response was fit by non-linear regression to determine an IC50 value, from which a Ki value for each compound was extrapolated.
# Briefly, the recombinant C-terminal ligand binding domain of the human STING protein (140-379) or mouse STING protein (139-328) [0.5 μM] was incubated in the presence of a compound of the present application (8 point, 2 fold dilution starting at 300 μM) for 30 min or under control conditions. […] The resulting complexes were then filtered, dried, and scintillation fluid was added and the remaining radio signal was measured to determine the degree of compound ligand inhibition. This assay format was optimized for both the WT and HAQ isoforms of the human protein and the mouse orthologue protein.
# Parameters optimized: • a. Form of protein: 6×HIS-SUMO tag or untagged • b. Concentration of target protein: Minimum concentration that achieved >80 max signal • c. Assay DMSO concentration: 10%-0.1% • d. Assay Buffer: Base (Tris or phosphate), Salt concentration, +/−Tween (0.1-2%) • e. […] Probe Concentration: Minimum concentration that achieved max assay window • g. Assay Format: Scintillation Proximity Bead or Filtration Binding Plate • h. Assay Plate: 384 vs 96 well format • i. Assay incubation times for successive incubation steps
# WT-hSWAT: WT_FBA_HIS-SUMO-hSWAT IC50 (μM) (“WT”=Wild-type); and WT-mSWAT: MOUSE_FBA_HIS-SUMO-mSWAT C50 (μM) which is the mouse isoform of STING protein.
Emax [1] [%],WT_DSF_hSWAT Tm Shift (° C.) [2],IC50 [3] [µM],Compound
> 50,D (“D” > 7° C.),20 to 100,"CSc1c(Cl)ccc2c(=O)c3ccc(N(C)C4CC(F)(F)C4)nc3n(CC(=O)O)c12 [Compound 41, Sodium 2-(8-chloro-2-((3,3-difluorocyclobutyl)(methyl)amino)-9-(methylthio)-5-oxobenzo[b][1,8]naphthyridin-10(5H)-yl)acetate]"
> 50,D (“D” > 7° C.),20 to 100,"CSc1c(Cl)ccc2c(=O)c3ccc(N(C)C4CC(OC(F)F)C4)nc3n(CC(=O)O)c12 (stereo not drawn) [Compound 45, Sodium 2-(8-chloro-2-((3-(difluoromethoxy)cyclobutyl)(methyl)amino)-9-(methylthio)-5-oxobenzo[b][1,8]naphthyridin-10(5H)-yl)acetate]"
> 50,D (“D” > 7° C.),< 20,"CSc1c(Cl)ccc2c(=O)c3ccc(N(CC4CC4)C4CC(OC(F)F)C4)nc3n(CC(=O)O)c12 (stereo not drawn) [Compound 46, sodium 2-(8-chloro-2-((cyclopropylmethyl)(3-(difluoromethoxy)cyclobutyl)amino)-9-(methylthio)-5-oxobenzo[b][1,8]naphthyridin-10(5H)-yl)acetate]"
> 50,D (“D” > 7° C.),< 20,"CSc1c(Cl)ccc2c(=O)c3ccc(N(C)C4CC(C)(C)C4)nc3n(CC(=O)O)c12 [Compound 48, sodium 2-(8-chloro-2-((3,3-dimethylcyclobutyl)(methyl)amino)-9-(methylthio)-5-oxobenzo[b][1,8]naphthyridin-10(5H)-yl)acetate]"
> 50,D (“D” > 7° C.),20 to 100,"CSc1c(Cl)ccc2c(=O)c3ccc(N(C)C4CC(C#N)C4)nc3n(CC(=O)O)c12 (stereo not drawn) [Compound 49, sodium 2-(8-chloro-2-((3-cyanocyclobutyl)(methyl)amino)-9-(methylthio)-5-oxobenzo[b][1,8]naphthyridin-10(5H)-yl)acetate]"
> 50,D (“D” > 7° C.),20 to 100,"COCCN(CC(F)(F)F)c1ccc2c(=O)c3ccc(Cl)c(SC)c3n(CC(=O)O)c2n1 [Compound 50, sodium 2-(8-chloro-2-((2-methoxyethyl)(2,2,2-trifluoroethyl)amino)-9-(methylthio)-5-oxobenzo[b][1,8]naphthyridin-10(5H)-yl)acetate]"
> 50,D (“D” > 7° C.),20 to 100,"COCCN(CC(F)F)c1ccc2c(=O)c3ccc(Cl)c(SC)c3n(CC(=O)O)c2n1 [Compound 51, sodium 2-(8-chloro-2-((2,2-difluoroethyl)(2-methoxyethyl)amino)-9-(methylthio)-5-oxobenzo[b][1,8]naphthyridin-10(5H)-yl)acetate]"
> 50,C (“C” = 2-7° C.),100 to 300,"CCOc1c(Cl)ccc2c(=O)c3ccc(N(CCOC)CC(F)F)nc3n(CC(=O)O)c12 [Compound 52, sodium 2-(8-chloro-2-((2,2-difluoroethyl)(2-methoxyethyl)amino)-9-ethoxy-5-oxobenzo[b][1,8]naphthyridin-10(5H)-yl)acetate]"

# The remaining lines, values behind:
Compound,Emax [1] [%],WT_DSF_hSWAT Tm Shift (° C.) [2],IC50 [3] [µM]
"CSc1c(Cl)ccc2c(=O)c3ccc(N(CC4CC4)C4CC(F)(F)C4)nc3n(CC(=O)O)c12 [Compound 42, sodium 2-(8-chloro-2-((cyclopropylmethyl)(3,3-difluorocyclobutyl)amino)-9-(methylthio)-5-oxobenzo[b][1,8]naphthyridin-10(5H)-yl)acetate]",> 50,D (“D” > 7° C.),20 to 100
"CO[C@H]1C[C@@H](N(CC2CC2)c2ccc3c(=O)c4ccc(Cl)c(SC)c4n(CC(=O)O)c3n2)C1 [Compound 43, sodium 2-(8-chloro-2-((cyclopropylmethyl)(3-methoxycyclobutyl)amino)-9-(methylthio)-5-oxobenzo[b][1,8]naphthyridin-10(5H)-yl)acetate]",> 50,D (“D” > 7° C.),< 20
"CSc1c(Cl)ccc2c(=O)c3ccc(N(C)C4CC5(CCC5)C4)nc3n(CC(=O)O)c12 [Compound 47, sodium 2-(8-chloro-2-(methyl(spiro[3.3]heptan-2-yl)amino)-9-(methylthio)-5-oxobenzo[b][1,8]naphthyridin-10(5H)-yl)acetate]",> 50,D (“D” > 7° C.),< 20
"CN(C)c1c(Cl)ccc2c(=O)c3ccc(NCC4CC(F)(F)C4)nc3n(CC(=O)O)c12 [Compound 53, Sodium 2-(8-chloro-2-(((3,3-difluorocyclobutyl)methyl)amino)-9-(dimethylamino)-5-oxobenzo[b][1,8]naphthyridin-10(5H)-yl)acetate]",> 50,D (“D” > 7° C.),< 20
"CSc1c(Cl)ccc2c(=O)c3ccc(NCC4CC(F)(F)C4)nc3n(CC(=O)O)c12 [Compound 54, Sodium 2-(8-chloro-2-(((3,3-difluorocyclobutyl)methyl)amino)-9-(methylthio)-5-oxobenzo[b][1,8]naphthyridin-10(5H)-yl)acetate]",> 50,D (“D” > 7° C.),20 to 100
"CSc1c(Cl)ccc2c(=O)c3ccc(NCC4COC4)nc3n(CC(=O)O)c12 [Compound 55, sodium 2-(8-chloro-9-(methylthio)-2-((oxetan-3-ylmethyl)amino)-5-oxobenzo[b][1,8]naphthyridin-10(5H)-yl)acetate]",> 50,D (“D” > 7° C.),20 to 100
"CSc1c(Cl)ccc2c(=O)c3ccc(NC4CC(C#N)C4)nc3n(CC(=O)O)c12 (stereo not drawn) [Compound 56, sodium 2-(8-chloro-2-((3-cyanocyclobutyl)amino)-9-(methylthio)-5-oxobenzo[b][1,8]naphthyridin-10(5H)-yl)acetate]",> 50,D (“D” > 7° C.),< 20
"CSc1c(Cl)ccc2c(=O)c3ccc(Nc4ccccc4F)nc3n(CC(=O)O)c12 [Compound 57, sodium 2-(8-chloro-2-((2-fluorophenyl)amino)-9-(methylthio)-5-oxobenzo[b][1,8]naphthyridin-10(5H)-yl)acetate]",> 50,D (“D” > 7° C.),< 20
